Measured values from ChEMBL document CHEMBL1146684, “An electrochemical device for the assay of the interaction between a dioxin receptor and its various ligands” (Bioorg Med Chem Lett, 2004).

Target: T1, Aryl hydrocarbon receptor (Homo sapiens, UniProt P35869)
T1 sequence (P35869 whole entry): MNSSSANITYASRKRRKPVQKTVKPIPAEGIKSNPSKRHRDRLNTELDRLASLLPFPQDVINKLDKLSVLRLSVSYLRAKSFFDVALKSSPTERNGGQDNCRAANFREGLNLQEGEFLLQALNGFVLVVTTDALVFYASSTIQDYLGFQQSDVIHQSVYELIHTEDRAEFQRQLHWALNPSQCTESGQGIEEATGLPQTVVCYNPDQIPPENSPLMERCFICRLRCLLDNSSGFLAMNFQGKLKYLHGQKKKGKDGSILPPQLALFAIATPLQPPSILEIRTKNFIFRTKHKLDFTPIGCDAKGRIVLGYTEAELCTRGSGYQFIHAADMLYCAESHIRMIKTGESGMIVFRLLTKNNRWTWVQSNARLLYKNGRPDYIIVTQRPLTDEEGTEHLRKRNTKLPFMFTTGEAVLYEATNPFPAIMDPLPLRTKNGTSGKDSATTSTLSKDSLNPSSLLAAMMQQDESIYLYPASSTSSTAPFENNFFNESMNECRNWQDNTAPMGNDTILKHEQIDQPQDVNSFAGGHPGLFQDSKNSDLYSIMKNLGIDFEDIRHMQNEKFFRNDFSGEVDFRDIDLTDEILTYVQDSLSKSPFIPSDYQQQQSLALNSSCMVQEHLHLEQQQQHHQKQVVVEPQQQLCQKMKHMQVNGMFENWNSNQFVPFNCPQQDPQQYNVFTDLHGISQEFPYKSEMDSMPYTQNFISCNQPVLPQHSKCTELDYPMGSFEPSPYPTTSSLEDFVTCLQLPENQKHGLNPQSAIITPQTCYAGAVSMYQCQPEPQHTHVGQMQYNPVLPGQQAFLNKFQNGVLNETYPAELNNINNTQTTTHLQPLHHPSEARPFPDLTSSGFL
Experiment: Compound tested for its binding to human Orphan receptor (AhR); Active; call rule not given here

Clc1cc2c(cc1Cl)Oc1cc(Cl)c(Cl)cc1O2 [2,3,7,8-TETRACHLORODIBENZO-P-DIOXIN]
Activity: Active

c1ccc2c(c1)cc1ccc3cccc4ccc2c1c34 [BENZO[DEF]CHRYSENE]
Activity: Active

O=c1cc(-c2ccccc2)oc2ccc3ccccc3c12 [BETA-NAPHTHOFLAVONE]
Activity: Active
